Assays:
[1] = test system: stretching after acetic acid (male dd mice); test: Analgesic effects by acetic acid writhing test; assay type: in vivo; conditions: oral, 0.6% acetic acid i.p.
Description: Thirty minutes after the examined drug was orally given, 0.1 ml/10 g of 0.6% acetic acid was intraperitoneally administered to groups of 10 male dd mice weighing some 18 g. The number of stretching was calculated during an observation period of 15 to 20 minutes after acetic acid treatment. The average inhibition rate of stretching among 8 animals was regarded as the inhibition rate of the drug, excluding 2 animals showing maximum and minimum numbers of stretching.

[2] = Acute toxicity, oral, number of deaths up to 72 hours; conditions: mouse, in vivo
Description: Groups of 10 male dd mice weighing some 18 g, were orally administered 800 mg/Kg of each of the examined drugs and the number of deaths up to 72 hours later was recorded.

[3] = test system: pseudopain reactions (dd mice); test: Analgesic effects by a modified Haffner method; assay type: in vivo; conditions: oral, with 2 mg/Kg morphine hydrochloride s.c.
Description: Groups of 10 dd mice were orally administered the examined drugs and 30 minutes later 2 mg/Kg of morphine hydrochloride, the threshhold dose, was subcutaneously injected. At 15, 30, 45 and 60 minute intervals thereafter, the root of the mouse's tail was squeezed with a Kocher's forcepts.

[4] = 800 mg/Kg, oral, male dd mice, up to 72 hours

## Cc1c(N(C)C)c(=O)n(-c2ccccc2)n1C [Aminopyrine, reference compound]
[1]; 50 mg/Kg
  Analgesic effects (acetic acid writhing test; average inhibition rate of stretching): 18%
[1]; 100 mg/Kg
  Analgesic effects (acetic acid writhing test; average inhibition rate of stretching): 57%
[2]; [4]
  mortality at 72 h: 80%
[3]; 50 mg/Kg
  Analgesic effects (modified Haffner method): 20%
[3]; 100 mg/Kg
  Analgesic effects (modified Haffner method): 55%

## CC(C(=O)O)c1cc(Cl)c2c(c1)C=CCO2 (centres unmarked) [Compound 4, 2-(8-Chloro-1,2-benzopyran-6-yl)propionic acid]
[1]; 50 mg/Kg
  Analgesic effects (acetic acid writhing test; average inhibition rate of stretching): 36%
[1]; 100 mg/Kg
  Analgesic effects (acetic acid writhing test; average inhibition rate of stretching): 61%
[2]; [4]
  mortality at 72 h: 30%
[3]; 50 mg/Kg
  Analgesic effects (modified Haffner method): 30%
[3]; 100 mg/Kg
  Analgesic effects (modified Haffner method): 55%

## CCCCC1C(=O)N(c2ccccc2)N(c2ccccc2)C1=O [Phenylbutazone, reference compound]
[2]; po, 800 mg/kg
  mortality at 72 h: 60%

## CC(C(=O)O)c1cc(Cl)c2c(c1)C=CC(C)(C)O2 (centres unmarked) [Compound 3, 2-(2,2-Dimethyl-8-chloro-1,2-benzopyran-6-yl)propionic acid]
[2]; [4]
  mortality at 72 h: 0%
[3]; 50 mg/Kg
  Analgesic effects (modified Haffner method): 20%
[3]; 100 mg/Kg
  Analgesic effects (modified Haffner method): 65%

## CC(C(=O)O)c1ccc2c(c1)C=CC(C)(C)O2 (centres unmarked) [Compound 2, 2-(2,2-Dimethyl-1,2-benzopyran-6-yl)propionic acid]
[1]; 50 mg/Kg
  Analgesic effects (acetic acid writhing test; average inhibition rate of stretching): 44%
[1]; 100 mg/Kg
  Analgesic effects (acetic acid writhing test; average inhibition rate of stretching): 76%
[2]; [4]
  mortality at 72 h: 0%
[3]; 50 mg/Kg
  Analgesic effects (modified Haffner method): 25%
[3]; 100 mg/Kg
  Analgesic effects (modified Haffner method): 50%

## CC(C(=O)O)c1cc(F)c2c(c1)C=CC(C)(C)O2 (centres unmarked) [Compound 1, 2-(2,2-dimethyl-8-fluoro-1,2-benzopyran-6-yl)propionic acid]
[1]; 50 mg/Kg
  Analgesic effects (acetic acid writhing test; average inhibition rate of stretching): 59%
[1]; 100 mg/Kg
  Analgesic effects (acetic acid writhing test; average inhibition rate of stretching): 76%
[2]; [4]
  mortality at 72 h: 0%
[3]; 50 mg/Kg
  Analgesic effects (modified Haffner method): 40%
[3]; 100 mg/Kg
  Analgesic effects (modified Haffner method): 70%

## CC(C(=O)O)c1cc(Cl)c2c(c1)CCCO2 (centres unmarked) [Compound 7, 2-(8-Chlorochroman-6-yl)propionic acid]
[2]; [4]
  mortality at 72 h: 0%

## O=C(O)Cc1cc(Cl)c2c(c1)C=CCO2 [Compound 5, (8-Chloro-1,2-benzopyran-6-yl)acetic acid]
[3]; 50 mg/Kg
  Analgesic effects (modified Haffner method): 35%
[3]; 100 mg/Kg
  Analgesic effects (modified Haffner method): 70%

## CC(C(=O)O)c1cc(Cl)c2c(c1)CCC(C)(C)O2 (centres unmarked) [Compound 6, 2-(2,2-dimethyl-8-chlorochroman-6-yl)propionic acid]
[1]; 50 mg/Kg
  Analgesic effects (acetic acid writhing test; average inhibition rate of stretching): 27%
[1]; 100 mg/Kg
  Analgesic effects (acetic acid writhing test; average inhibition rate of stretching): 68%
[2]; [4]
  mortality at 72 h: 30%
[3]; 50 mg/Kg
  Analgesic effects (modified Haffner method): 30%
[3]; 100 mg/Kg
  Analgesic effects (modified Haffner method): 60%
